From publication PMC13064811, “The Role of Disulfide Bonds in the GluN1 Subunit in the Early Trafficking and Functional Properties of GluN1/GluN2 and GluN1/GluN3 NMDA Receptors” (The Journal of Neuroscience, 2026)
Read-outs that look alike come from different tables or passages of the source.

Columns and labels:
[1] = biological target: T1, hGluN1-4a-C744Y/hGluN2A (Homo sapiens, UniProt Q05586+Q12879, C744Y); type: cell-based; conditions: for effect on peak current amplitudes (redox sensitivity): pretreatment with 4 mM DTT or 0.5 mM DTNB, each for 2 min
T1 construct: GluN1-4a (hGluN1-4a; NP_000823.4); GluN2A (hGluN2A; NP_001127879.1); expressed in transfected cells; host or cells: HEK293T

[2] = biological target: T2, hGluN1-4a/hGluN2B (Homo sapiens, UniProt Q05586+Q13224); type: cell-based; conditions: pretreatment with 4 mM DTT or 0.5 mM DTNB, each for 2 min
T2 construct: GluN1-4a (hGluN1-4a; NP_000823.4); GluN2B (hGluN2B; NP_000825.2); expressed in transfected cells; host or cells: HEK293T

[3] = biological target: T3, hGluN1-4a/hGluN2A (Homo sapiens, UniProt Q05586+Q12879); type: cell-based; conditions: for effect on peak current amplitudes (redox sensitivity): pretreatment with 4 mM DTT or 0.5 mM DTNB, each for 2 min
T3 construct: GluN1-4a (hGluN1-4a; NP_000823.4); GluN2A (hGluN2A; NP_001127879.1); expressed in transfected cells; host or cells: HEK293T

[4] = biological target: T4, hGluN1-4a-C744Y/hGluN2B (Homo sapiens, UniProt Q05586+Q13224, C744Y); type: cell-based
T4 construct: GluN1-4a (hGluN1-4a; NP_000823.4); GluN2B (hGluN2B; NP_000825.2); expressed in transfected cells; host or cells: HEK293T

[5] = tested on: GluN1-C454S/GluN2B; conditions: cited from earlier work
[6] = tested on: GluN1-C436S/GluN2B; conditions: cited from earlier work
[7] = biological target: YFP-hGluN1-1a-C744Y/hGluN2B (Homo sapiens, UniProt Q05586+Q13224, C744Y); type: cell-based
[8] = biological target: YFP-hGluN1-1a/hGluN2A (Homo sapiens, UniProt Q05586+Q12879); type: cell-based
[9] = biological target: GluN1-C744Y/GluN2A receptors; conditions: cited from earlier work
[10] = biological target: YFP-hGluN1-1a-C744Y/hGluN2A (Homo sapiens, UniProt Q05586+Q12879, C744Y); type: cell-based
[11] = tested on: GluN1-C455S/GluN2B; conditions: cited from earlier work
[12] = biological target: YFP-hGluN1-1a/hGluN2B (Homo sapiens, UniProt Q05586+Q13224); type: cell-based
[13] = biological target: YFP-GluN1-1a/GluN2B (Rattus norvegicus, UniProt P35439+Q00960)
[14] = biological target: GluN1-4a-C420S-C454S/GluN2A (Rattus norvegicus, UniProt P35439+Q00959, C420S/C454S)
[15] = biological target: GluN1-4a-C744S-C798S/GluN2A (Rattus norvegicus, UniProt P35439+Q00959, C744S/C798S)
[16] = biological target: YFP-GluN1-1a-C420S-C454S/GluN2B (Rattus norvegicus, UniProt P35439+Q00960, C420S/C454S)
[17] = biological target: GluN1-4a-C79S-C308S/GluN2A (Rattus norvegicus, UniProt P35439+Q00959, C308S/C79S)
[18] = biological target: GluN1-4a-C436S-C455S/GluN2A (Rattus norvegicus, UniProt P35439+Q00959, C436S/C455S)
[19] = biological target: YFP-GluN1-4a-C436S-C455S/GluN2B (Rattus norvegicus, UniProt P35439+Q00960, C436S/C455S)
[20] = biological target: YFP-GluN1-1a-C744S-C798S/GluN2B (Rattus norvegicus, UniProt P35439+Q00960, C744S/C798S)
[21] = biological target: YFP-GluN1-4a-C436S-C455S/GluN2A (Rattus norvegicus, UniProt P35439+Q00959, C436S/C455S)
[22] = biological target: YFP-GluN1-1a-C744S-C798S/GluN2A (Rattus norvegicus, UniProt P35439+Q00959, C744S/C798S)
[23] = biological target: GluN1-4a/GluN2A (Rattus norvegicus, UniProt P35439+Q00959)
[24] = biological target: YFP-GluN1-1a-C79S-C308S/GluN2A (Rattus norvegicus, UniProt P35439+Q00959, C308S/C79S)
[25] = biological target: YFP-GluN1-1a-C79S-C308S/GluN2B (Rattus norvegicus, UniProt P35439+Q00960, C308S/C79S)
[26] = biological target: GluN1-4a-C79S-C308S/GluN2B (Rattus norvegicus, UniProt P35439+Q00960, C308S/C79S)
[27] = biological target: YFP-GluN1-1a/GluN2A (Rattus norvegicus, UniProt P35439+Q00959)
[28] = biological target: GluN1-4a-C744S-C798S/GluN2B (Rattus norvegicus, UniProt P35439+Q00960, C744S/C798S)
[29] = biological target: GluN1-4a/GluN2B (Rattus norvegicus, UniProt P35439+Q00960)
[30] = biological target: YFP-GluN1-1a-C420S-C454S/GluN2A (Rattus norvegicus, UniProt P35439+Q00959, C420S/C454S)
[31] = biological target: GluN1-4a-C436S-C455S/GluN2B (Rattus norvegicus, UniProt P35439+Q00960, C436S/C455S)
[32] = tested on: GluN1-C79S-C308S/GluN2A receptors; conditions: cited from earlier work
[33] = tested on: YFP-hGluN1/hGluN2A receptors; type: cell-based, rat
[34] = tested on: YFP-hGluN1/hGluN2B receptors; type: cell-based, rat
[35] = tested on: YFP-GluN1-1a/GluN3A
[36] = tested on: YFP-hGluN1-1a/hGluN3A
[37] = tested on: YFP-hGluN1-1a-C744Y/hGluN3A
[38] = tested on: YFP-GluN1-1a-C744S-C798S/GluN3A
[39] = tested on: hippocampal neurons expressing YFP-hGluN1-1a or YFP-hGluN1-1a-C744Y subunits; test: NMDA-induced excitotoxicity assay; type: cell-based, rat; conditions: 10 µM memantine; death induced by 30 µM NMDA and 10 µM glycine
[40] = biological target: T2, hGluN1-4a/hGluN2B; design: method as in Konecny et al., 2024; conditions: ref Konecny et al., 2024, cited from earlier work
[41] = read-out: EC50 value for glycine
[42] = 1 mM L-glutamate and 100 µM glycine, −60 mV
[43] = offset of inhibition, 1 mM glutamate and 100 µM glycine
[44] = onset of inhibition, 1 mM glutamate and 100 µM glycine

T3 sequence (Q12879 23-1464, other chains not shown): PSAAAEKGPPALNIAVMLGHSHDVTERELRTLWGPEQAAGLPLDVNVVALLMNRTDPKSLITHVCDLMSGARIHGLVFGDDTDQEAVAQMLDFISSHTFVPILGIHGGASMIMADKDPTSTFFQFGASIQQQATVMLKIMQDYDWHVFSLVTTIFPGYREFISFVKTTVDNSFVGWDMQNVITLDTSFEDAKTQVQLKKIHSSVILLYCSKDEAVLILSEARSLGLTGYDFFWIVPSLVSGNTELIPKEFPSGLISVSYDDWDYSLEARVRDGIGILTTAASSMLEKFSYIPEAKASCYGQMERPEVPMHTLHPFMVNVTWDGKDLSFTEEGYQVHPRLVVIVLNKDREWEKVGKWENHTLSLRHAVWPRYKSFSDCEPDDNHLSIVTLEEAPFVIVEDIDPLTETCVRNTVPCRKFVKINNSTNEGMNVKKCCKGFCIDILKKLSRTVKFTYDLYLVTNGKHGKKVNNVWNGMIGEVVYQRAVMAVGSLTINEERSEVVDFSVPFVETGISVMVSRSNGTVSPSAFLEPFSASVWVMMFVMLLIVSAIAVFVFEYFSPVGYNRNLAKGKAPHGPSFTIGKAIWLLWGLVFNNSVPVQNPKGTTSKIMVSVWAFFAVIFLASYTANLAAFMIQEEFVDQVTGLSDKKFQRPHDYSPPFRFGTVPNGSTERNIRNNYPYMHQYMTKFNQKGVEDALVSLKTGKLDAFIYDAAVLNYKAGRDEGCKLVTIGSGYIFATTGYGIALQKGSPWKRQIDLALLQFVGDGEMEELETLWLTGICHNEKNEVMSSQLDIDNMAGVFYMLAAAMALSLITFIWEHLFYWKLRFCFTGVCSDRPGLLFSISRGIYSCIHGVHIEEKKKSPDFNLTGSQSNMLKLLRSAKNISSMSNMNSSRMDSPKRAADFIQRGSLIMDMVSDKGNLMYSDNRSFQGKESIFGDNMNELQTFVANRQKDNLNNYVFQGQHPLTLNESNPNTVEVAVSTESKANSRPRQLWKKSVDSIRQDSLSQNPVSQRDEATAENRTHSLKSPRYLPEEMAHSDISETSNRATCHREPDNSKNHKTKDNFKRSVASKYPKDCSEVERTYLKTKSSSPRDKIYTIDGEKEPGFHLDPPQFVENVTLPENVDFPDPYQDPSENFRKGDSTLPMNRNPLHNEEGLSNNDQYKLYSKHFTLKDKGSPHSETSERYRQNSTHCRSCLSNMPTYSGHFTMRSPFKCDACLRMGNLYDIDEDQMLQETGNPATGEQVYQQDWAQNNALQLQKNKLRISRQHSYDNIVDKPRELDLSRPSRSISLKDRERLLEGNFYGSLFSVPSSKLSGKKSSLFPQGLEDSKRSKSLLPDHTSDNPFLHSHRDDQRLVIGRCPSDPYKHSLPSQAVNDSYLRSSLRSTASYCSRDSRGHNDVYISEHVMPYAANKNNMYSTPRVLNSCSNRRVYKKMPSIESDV
Chain of YFP-hGluN1-1a/hGluN2A (Q12879 23-1464, other chains not shown): as above
Chain of YFP-hGluN1-1a-C744Y/hGluN2A (Q12879 23-1464, other chains not shown): as above

O[C@@H](CS)[C@@H](O)CS (racemic) [DTT, dithiothreitol]
effect on peak current amplitudes (redox sensitivity) [1]: neither condition (DTT or DTNB) altered the peak current amplitudes | effect on peak current amplitudes (redox sensitivity) [2]: reduced the peak current amplitudes | effect on peak current amplitudes (redox sensitivity) [3]: neither condition (DTT or DTNB) altered the peak current amplitudes | effect on peak current amplitudes (redox sensitivity) ([4]; pretreatment with 4 mM DTT, 2 min): did not affect

O=C(O)c1cc(SSc2ccc([N+](=O)[O-])c(C(=O)O)c2)ccc1[N+](=O)[O-] [DTNB, 5,5′-dithiobis-(2-nitrobenzoic acid)]
effect on peak current amplitudes (redox sensitivity) [1]: neither condition (DTT or DTNB) altered the peak current amplitudes | effect on peak current amplitudes (redox sensitivity) [3]: neither condition (DTT or DTNB) altered the peak current amplitudes

N[C@@H](CCC(=O)O)C(=O)O [L-glutamate]
EC50 ([5]; read-out: EC50 L-glutamate): 1700 nM | EC50 ([6]; read-out: EC50 L-glutamate): 3000 nM | L-glutamate h (Hill coefficient) ([7]; YFP-hGluN1-1a-C744Y/hGluN2B, −60 mV): 0.89 ± 0.05 | L-glutamate h (Hill coefficient) ([8]; YFP-hGluN1-1a/hGluN2A, −60 mV): 1.36 ± 0.10 | EC50 ([9]; read-out: EC50 value for L-glutamate): 1100 nM | L-glutamate h (Hill coefficient) ([10]; YFP-hGluN1-1a-C744Y/hGluN2A, −60 mV): 1.33 ± 0.09 | EC50 ([11]; read-out: EC50 L-glutamate): 3000 nM | L-glutamate h (Hill coefficient) ([12]; YFP-hGluN1-1a/hGluN2B, −60 mV): 1.06 ± 0.06

C[C@]12N[C@H](Cc3ccccc31)c1ccccc12 [MK-801, Dizocilpine]
τon-MK-801 [13]: 2,053.21 ± 117.07 ms | τon-MK-801 [14]: 987.68 ± 105.05 ms | τon-MK-801 [15]: 278.04 ± 55.79 ms | τon-MK-801 [16]: 2,612.49 ± 167.91 ms | τon-MK-801 [17]: 1,038.07 ± 140.54 ms | τon-MK-801 [18]: 910.61 ± 85.39 ms | τon-MK-801 [19]: 2,040.87 ± 282.26 ms | τon-MK-801 [7]: 846.35 ± 52.08 ms | τon-MK-801 [20]: 765.01 ± 74.13 ms | τon-MK-801 [21]: 937.85 ± 78.10 ms | τon-MK-801 [22]: 345.28 ± 25.68 ms | τon-MK-801 [23]: 981.54 ± 19.11 ms | τon-MK-801 [24]: 1,109.06 ± 65.15 ms | τon-MK-801 [8]: 789.63 ± 58.54 ms | τon-MK-801 [25]: 3,010.09 ± 193.67 ms | τon-MK-801 [26]: 3,355.73 ± 243.72 ms | τon-MK-801 [10]: 240.25 ± 29.53 ms | τon-MK-801 [27]: 1,178.37 ± 93.82 ms | τon-MK-801 [28]: 486.89 ± 100.90 ms | τon-MK-801 [29]: 2,307.47 ± 151.45 ms | τon-MK-801 [12]: 2,008.90 ± 224.76 ms | τon-MK-801 [30]: 1,045.30 ± 112.94 ms | τon-MK-801 [31]: 1,988.70 ± 356.79 ms

CN[C@H](CC(=O)O)C(=O)O [NMDA]
increase of the EC50 value for NMDA [32]: ~25%

NC1=N[C@H](O)[C@H]2[C@H]3O[C@]4(O)O[C@@H]([C@@H](O)[C@@]2(N1)[C@@H]4O)[C@]3(O)CO [TTX, tetrodotoxin]
relative surface expression [33]: no alterations in the relative surface expression levels

CN1CCc2cc3c(cc2[C@H]1[C@@H]1OC(=O)c2c1ccc1c2OCO1)OCO3 [bicuculline]
relative surface expression [34]: increased relative surface expression | relative surface expression [33]: no alterations in the relative surface expression levels

NCC(=O)O [glycine]
EC50 [32, 41]: 2620 nM | EC50 ([5]; read-out: EC50 glycine): 730 nM | EC50 ([6]; read-out: EC50 glycine): 720 nM | h (Hill coefficient), glycine [35]: 1.26 ± 0.15 | EC50 ([35]; read-out: Glycine EC50): 52300 ± 13000 nM | Glycine h (Hill coefficient) [7]: 0.80 ± 0.03 | EC50 ([7]; read-out: Glycine EC50): 590 ± 80 nM | Glycine h (Hill coefficient) [36]: 0.61 ± 0.02 | EC50 ([36]; read-out: Glycine EC50): 70500 ± 10700 nM | Glycine h (Hill coefficient) [8]: 1.46 ± 0.07 | EC50 ([8]; read-out: Glycine EC50): 2910 ± 290 nM | EC50 [9, 41]: 700 nM | Glycine h (Hill coefficient) [37]: 0.75 ± 0.03 | EC50 ([37]; read-out: Glycine EC50): 368000 ± 51000 nM | Glycine h (Hill coefficient) [10]: 1.47 ± 0.08 | EC50 ([10]; read-out: Glycine EC50): 3010 ± 410 nM | h (Hill coefficient), glycine [38]: 0.88 ± 0.09 | EC50 ([38]; read-out: Glycine EC50): 213000 ± 30800 nM | EC50 ([11]; read-out: EC50 glycine): 250 nM | Glycine h (Hill coefficient) [12]: 0.83 ± 0.06

CC12CC3CC(C)(C1)CC(N)(C3)C2 [memantine]
h (Hill coefficient), memantine [1, 42]: 0.94 ± 0.06 | τoff 1 μM memantine [1, 43]: 458.37 ± 83.04 ms | τon 1 μM memantine [1, 44]: 292.14 ± 24.73 ms | neuronal death [39]: reduced neuronal death | h (Hill coefficient), memantine [3, 42]: 1.04 ± 0.06 | τoff 1 μM memantine [3, 43]: 510.08 ± 40.38 ms | τon 1 μM memantine [3, 44]: 440.47 ± 39.77 ms | h (Hill coefficient), memantine [40, 42]: 1.04 ± 0.03 | τoff 1 μM memantine [40, 43]: 758.93 ± 49.66 ms | τon 1 μM memantine [40, 44]: 708.99 ± 49.40 ms | h (Hill coefficient), memantine [4, 42]: 0.86 ± 0.05 | τoff 1 μM memantine [4, 43]: 811.87 ± 56.87 ms | τon 1 μM memantine [4, 44]: 519.40 ± 26.19 ms
